Laboratory results from ChEMBL document CHEMBL4627246, “Pyroglutamide-Based P2X7 Receptor Antagonists Targeting Inflammatory Bowel Disease” (J Med Chem, 2020).

Assays:
Format in all cases: cell-based
MCF7 = experiment: Cytotoxicity against human MCF7 cells assessed as effect on cell growth at 10 uM incubated for 48 hrs by sulforhodamine B assay; conditions: mcf7, 48 h
HOP-62 = experiment: Cytotoxicity against human HOP62 cells assessed as effect on cell growth at 10 uM incubated for 48 hrs by sulforhodamine B assay; conditions: hop-62, 48 h
CAKI-1 = experiment: Growth inhibition of human Caki1 cells assessed as growth percentage at 10 uM incubated for 48 hrs by sulforhodamine B assay; conditions: caki-1, 48 h
SK-OV-3 = experiment: Cytotoxicity against human SKOV3 cells assessed as effect on cell growth at 10 uM incubated for 48 hrs by sulforhodamine B assay; conditions: sk-ov-3, 48 h
UO-31 = experiment: Cytotoxicity against human UO31 cells assessed as effect on cell growth at 10 uM incubated for 48 hrs by sulforhodamine B assay; conditions: uo-31, 48 h
SK-MEL-2 = experiment: Cytotoxicity against human SK-MEL-2 cells assessed as effect on cell growth at 10 uM incubated for 48 hrs by sulforhodamine B assay; conditions: sk-mel-2, 48 h
MOLT-4 = experiment: Cytotoxicity against human MOLT4 cells assessed as effect on cell growth at 10 uM incubated for 48 hrs by sulforhodamine B assay; conditions: molt-4, 48 h
DU-145 = experiment: Cytotoxicity against human DU145 cells assessed as effect on cell growth at 10 uM incubated for 48 hrs by sulforhodamine B assay; conditions: du-145, 48 h
HCT-15 = experiment: Cytotoxicity against human HCT15 cells assessed as effect on cell growth at 10 uM incubated for 48 hrs by sulforhodamine B assay; conditions: hct-15, 48 h
Hs-578T = experiment: Cytotoxicity against human Hs 578T cells assessed as effect on cell growth at 10 uM incubated for 48 hrs by sulforhodamine B assay
K562 = experiment: Cytotoxicity against human K562 cells assessed as effect on cell growth at 10 uM incubated for 48 hrs by sulforhodamine B assay; conditions: k562, 48 h
SK-MEL-5 = experiment: Cytotoxicity against human SK-MEL-5 cells assessed as effect on cell growth at 10 uM incubated for 48 hrs by sulforhodamine B assay; conditions: sk-mel-5, 48 h
M14 = experiment: Cytotoxicity against human M14 cells assessed as effect on cell growth at 10 uM incubated for 48 hrs by sulforhodamine B assay; conditions: m14, 48 h
UACC-62 = experiment: Cytotoxicity against human UACC62 cells assessed as effect on cell growth at 10 uM incubated for 48 hrs by sulforhodamine B assay; conditions: uacc-62, 48 h
SNB-19 = experiment: Cytotoxicity against human SNB19 cells assessed as effect on cell growth at 10 uM incubated for 48 hrs by sulforhodamine B assay; conditions: snb-19, 48 h
TK-10 = experiment: Cytotoxicity against human TK10 cells assessed as effect on cell growth at 10 uM incubated for 48 hrs by sulforhodamine B assay; conditions: tk-10, 48 h
RXF 393 = experiment: Cytotoxicity against human RXF393 cells assessed as effect on cell growth at 10 uM incubated for 48 hrs by sulforhodamine B assay; conditions: rxf 393, 48 h
MDA-MB-435 = experiment: Cytotoxicity against human MDA-MB-435 cells assessed as effect on cell growth at 10 uM incubated for 48 hrs by sulforhodamine B assay; conditions: mda-mb-435, 48 h
NCI-H522 = experiment: Cytotoxicity against human NCI-H522 cells assessed as effect on cell growth at 10 uM incubated for 48 hrs by sulforhodamine B assay; conditions: nci-h522, 48 h
EKVX = experiment: Cytotoxicity against human EKVX cells assessed as effect on cell growth at 10 uM incubated for 48 hrs by sulforhodamine B assay

Measured: Activity

CN(C)/C=C1\C[C@H]2C(=O)N(/C(=C/N(C)C)c3ccncc3)C(N(C)C)N2C1=O (stereo not given in full)
Non-Toxic: MCF7 | HOP-62 | CAKI-1 | SK-OV-3 | UO-31 | SK-MEL-2 | MOLT-4 | DU-145 | HCT-15 | Hs-578T | K562 | SK-MEL-5 | M14 | UACC-62 | SNB-19 | TK-10 | RXF 393 | MDA-MB-435 | NCI-H522 | EKVX

COc1cc(CNC(=O)[C@@H]2CCC(=O)N2)cc(OC)c1OC
Non-Toxic: MCF7 | HOP-62 | CAKI-1 | SK-OV-3 | UO-31 | SK-MEL-2 | MOLT-4 | DU-145 | HCT-15 | Hs-578T | K562 | SK-MEL-5 | M14 | UACC-62 | SNB-19 | TK-10 | RXF 393 | MDA-MB-435 | NCI-H522 | EKVX

O=C1N[C@H](C(=O)NCc2ccc(Cl)cc2Cl)CO1
Non-Toxic: MCF7 | HOP-62 | CAKI-1 | SK-OV-3 | UO-31 | SK-MEL-2 | MOLT-4 | DU-145 | HCT-15 | Hs-578T | K562 | SK-MEL-5 | M14 | UACC-62 | SNB-19 | TK-10 | RXF 393 | MDA-MB-435 | NCI-H522 | EKVX

O=C(NCc1ccc(Cl)cc1Cl)[C@@H]1COC(=O)N1c1cccs1
Non-Toxic: MCF7 | HOP-62 | CAKI-1 | SK-OV-3 | UO-31 | SK-MEL-2 | MOLT-4 | DU-145 | HCT-15 | Hs-578T | K562 | SK-MEL-5 | M14 | UACC-62 | SNB-19 | TK-10 | RXF 393 | MDA-MB-435 | NCI-H522 | EKVX

O=C1CCCC(C(=O)NCc2ccc(Cl)cc2Cl)N1 (stereo not given)
Non-Toxic: MCF7 | HOP-62 | CAKI-1 | SK-OV-3 | UO-31 | SK-MEL-2 | MOLT-4 | DU-145 | HCT-15 | Hs-578T | K562 | SK-MEL-5 | M14 | UACC-62 | SNB-19 | TK-10 | RXF 393 | MDA-MB-435 | NCI-H522 | EKVX

COc1ccccc1CN1C(=O)[C@@H]2C/C(=C\N(C)C)C(=O)N2C1N(C)C (stereo not given in full)
Non-Toxic: MCF7 | HOP-62 | CAKI-1 | SK-OV-3 | UO-31 | SK-MEL-2 | MOLT-4 | DU-145 | HCT-15 | Hs-578T | K562 | SK-MEL-5 | M14 | UACC-62 | SNB-19 | TK-10 | RXF 393 | MDA-MB-435 | NCI-H522 | EKVX

O=C1N[C@H](C(=O)NCc2ccc(Cl)cc2Cl)C/C1=N\O (stereo in doubt)
Non-Toxic: MCF7 | HOP-62 | CAKI-1 | SK-OV-3 | UO-31 | SK-MEL-2 | MOLT-4 | DU-145 | HCT-15 | Hs-578T | K562 | SK-MEL-5 | M14 | UACC-62 | SNB-19 | TK-10 | RXF 393 | MDA-MB-435 | NCI-H522 | EKVX

O=C(NCCc1ccccc1)[C@@H]1CCC(=O)N1Cc1ccc(Cl)cc1Cl
Non-Toxic: MCF7 | HOP-62 | CAKI-1 | SK-OV-3 | UO-31 | SK-MEL-2 | MOLT-4 | DU-145 | HCT-15 | Hs-578T | K562 | SK-MEL-5 | M14 | UACC-62 | SNB-19 | TK-10 | RXF 393 | MDA-MB-435 | NCI-H522 | EKVX
